Source: US20240360148A1 (SUVALENT THERAPEUTICS, INC., priority 2021, published 2024)

Key:
[1] = system: sumoylation levels (SUMO 2/3 conjugates) in HCT-116 cells; assay: HCT-116 4 Hour Cell Assay (Western, SUMO 2/3 conjugates); type: cell-based; conditions: Homo sapiens, HCT-116, 4 h, 4 h treatment, Anti-Sumo 2-3 immunoblot, read-out: HCT-116 Western 4 h IC50 (μM) Ave
Experimental: This protocol describes the procedures used to assess the effects of compounds of interest on sumoylation levels. Immunoblot of SUMO 2/3 conjugates are performed and IC50 curves are generated upon quantification of sumoylations bands. HCT-116 cells are seeded in a 12 well plate (500,000 cells/well). The following day the cells are treated with compounds of interest (resuspended in DMSO) for 4 hours (11 concentrations with a three-fold dilution; starting concentration 25 μM) Following 4 hours of incubation the cells are washed with ice cold PBS 1×and protein extraction is performed with RIPA buffer supplemented with phosphatases and proteases inhibitors, 25 mM of NEM and 50 units/mL of Benzonase. Samples undergo centrifugation at 13,000 RPM, 4° C., for 10 minutes and the supernatant is collected. Protein quantification is performed using BCA. Non-Reducing Laemmli Buffer is added to the samples. Samples are heated at 75° C. for 10 minutes, and are centrifuged for 3 minutes at 9000 RPM Nupage 4-12% Bis Tris gels and 1× MOPS buffer (Fisher Scientific)+1× NuPAGE Antioxidant (Invitrogen) are used to perform the SDS-PAGE gel electrophoresis (20 to 40 μg of proteins are loaded in the gels). Proteins are then transferred to PVDF membranes and the level of total proteins are measured by staining with Revert Total Protein Stain and the fluorescent bands are acquired using the LI-COR FC (700 nm for 1 min) Membranes are blocked for 5 minutes with Bio-Rad Blocking Buffer and are subsequently incubated over night at 4° C. with Anti-Sumo 2-3 mAb (M BL #M114-3, 1:1000 in Bio-Rad Blocking Buffer, 0.2% Tween 20) Membranes are washed with 1×TBS-T (3 times for 5 minutes) and sumoylation is detected using Li-cor IRDye 800CW Goat anti-Mouse IgG secondary antibody (1:10,000 dilution) upon 1 hour of incubation in blocking buffer with 0.2% Tween 20 and 0.01% SDS. After the incubation, the membranes are washed with 1×TBS-T (3 times for 5 minutes). To visualize the fluorescent bands the membranes are scanned with LI-COR FC (700 nm for 1 min and […] for 2 mins). Sumoylation levels are quantified upon normalization with total protein levels, using the LI-COR Image Studio Lite 5.2 Software.

SAE1 = SAE1 (Homo sapiens (Human), UniProt Q9UBE0+Q9UBT2); assay: SAE High Throughput Biochemical Assay (HTRF), 15 min preincubation; conditions: read-out: 15 min preincubation HTRF IC50 (μM) Ave, SAE1 12.5 nM, ATP 100 μM
In short: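 SAE1 (12.5 nM) was preincubated with compound for 15 min at RT in HEPES pH 7.5, 0.1% BSA, 10 mM MgCl2. The reaction was then started with SUMO-GST and UBC9-His (40 nM each) plus 100 μM ATP for 45 min. After KF stop, HTRF (anti-GST-XL665/anti-His-EuK) was read at 2 h and overnight; some compounds were tested singly at 25 micromolar as percent of control.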

Chain of SAE1 (Q9UBE0 whole entry): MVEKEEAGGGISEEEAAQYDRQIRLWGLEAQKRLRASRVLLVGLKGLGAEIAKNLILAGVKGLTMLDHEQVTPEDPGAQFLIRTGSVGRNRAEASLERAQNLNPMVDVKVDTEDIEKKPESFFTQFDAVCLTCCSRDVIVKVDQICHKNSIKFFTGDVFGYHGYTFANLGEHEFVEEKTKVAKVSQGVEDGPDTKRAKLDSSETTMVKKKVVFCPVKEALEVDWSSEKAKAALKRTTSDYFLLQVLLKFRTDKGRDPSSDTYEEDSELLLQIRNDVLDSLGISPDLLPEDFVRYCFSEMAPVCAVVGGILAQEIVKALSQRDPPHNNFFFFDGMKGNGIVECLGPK
Chain of SAE1 (Q9UBT2 whole entry): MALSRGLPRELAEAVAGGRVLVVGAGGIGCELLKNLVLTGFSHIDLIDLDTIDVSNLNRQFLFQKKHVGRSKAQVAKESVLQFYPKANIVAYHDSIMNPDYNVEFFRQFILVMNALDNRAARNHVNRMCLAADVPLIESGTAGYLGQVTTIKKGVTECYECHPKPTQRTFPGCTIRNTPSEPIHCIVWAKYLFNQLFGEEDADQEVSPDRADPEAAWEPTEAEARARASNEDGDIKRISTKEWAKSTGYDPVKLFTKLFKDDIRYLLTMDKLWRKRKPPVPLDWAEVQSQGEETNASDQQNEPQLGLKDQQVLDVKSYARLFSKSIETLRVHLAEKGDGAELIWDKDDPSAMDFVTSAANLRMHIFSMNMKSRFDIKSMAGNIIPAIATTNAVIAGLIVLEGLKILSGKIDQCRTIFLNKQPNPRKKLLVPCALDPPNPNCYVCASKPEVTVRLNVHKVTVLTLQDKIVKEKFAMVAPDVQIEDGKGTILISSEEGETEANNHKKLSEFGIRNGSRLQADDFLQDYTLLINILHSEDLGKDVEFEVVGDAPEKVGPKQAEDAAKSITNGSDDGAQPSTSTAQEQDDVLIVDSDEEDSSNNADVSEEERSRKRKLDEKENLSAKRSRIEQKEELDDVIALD

Row | SMILES | IC50 [1] | IC50 (SAE1)
1 | CCn1cc(-c2c(F)cccc2[C@@H]2CN(C(=O)/C=C/C3CC[C@@H](C)N3)Cc3sc(C#N)cc32)c(C(F)(F)F)n1 (stereo in doubt) [Example 93, (S)-4-(2-(1-ethyl-3-(trifluoromethyl)-1H pyrazol-4-yl)-3-fluorophenyl)-6-((E)-3-((2S,5R)-5-methylpyrrolidin-2-yl)acryloyl)-4,5,6,7-tetrahydrothieno[2,3-c]pyridine-2-carbonitrile] | 0.145 µM | 0.76 µM
2 | Cc1c(C#N)sc2c1[C@H](c1cccc(F)c1-c1cn(C)nc1C(F)(F)F)CN(C(=O)/C=C/CN(C)C)C2 [Compound 220] | 0.0573 µM | 0.067 µM
3 | Cc1c(C#N)sc2c1[C@H](c1cccc(F)c1-c1c[nH]nc1C(F)(F)F)CN(C(=O)/C=C/CN(C)C)C2 [Compound 221] | 0.134 µM | 0.347 µM
4 | CCn1cc(-c2c(F)cccc2[C@@H]2CN(C(=O)/C=C/CN)Cc3sc(C#N)c(C)c32)c(C(F)(F)F)n1 [Compound 224] | 0.106 µM | 0.172 µM
5 | C=CC(=O)N1Cc2sc(C#N)cc2C(c2ccc(NC(C)=O)cc2-c2cn(CC)nc2C(F)(F)F)C1 (stereo not drawn) [Compound 230] | 5.39 µM | 1.1 µM
6 | C=CC(=O)N1Cc2sc(C#N)c(C)c2C(c2ccccc2-c2cn(CC)nc2C(F)(F)F)C1 (stereo not drawn) [Compound 231] | 1 µM | 0.16 µM
7 | CCn1cc(-c2ccccc2C2CN(C(=O)/C=C/CN(C)C)Cc3sc(C#N)c(C)c32)c(C(F)(F)F)n1 (stereo not drawn) [Compound 232] | 0.402 µM | 1.36 µM
8 | CCn1cc(-c2ccccc2[C@H]2c3cc(C#N)sc3CN(C(=O)/C=C/CN(C)C)[C@@H]2C)c(C(F)(F)F)n1 [Compound 233] | 0.914 µM | 4.82 µM
9 | CCn1cc(-c2c(F)cccc2C2CN(C(=O)/C=C/CN(C)C)Cc3sc(C#N)cc32)c(C(F)(F)F)n1 (stereo not drawn) [Compound 234] | 0.339 µM | 2.23 µM
10 | C=CC(=O)N1Cc2sc(C#N)cc2C(c2cccc(F)c2-c2cn(CC)nc2C(F)(F)F)C1 (stereo not drawn) [Compound 236] | 0.356 µM | 0.24 µM
11 | CCn1cc(C2=C([C@@H]3CN(C(=O)/C=C/CN(C)C)Cc4sc(C#N)cc43)CCCC2)c(C(F)(F)F)n1 [Compound 237] | 0.897 µM | 2.64 µM
12 | CCn1cc(-c2c(F)cc(F)cc2[C@@H]2CN(C(=O)/C=C/CN(C)C)Cc3sc(C#N)cc32)c(C(F)(F)F)n1 [Compound 238] | 0.844 µM | 1.79 µM
13 | CCn1cc(-c2ccccc2[C@@H]2CN(C(=O)/C=C/CN(C)C)Cc3sc(C#N)c(C)c32)c(C(F)(F)F)n1 [Compound 239] | 0.187 µM | 1.12 µM
14 | CCn1cc(-c2c([C@@H]3CN(C(=O)/C=C/CN(C)C)Cc4sc(C#N)cc43)ccc(O)c2F)c(C(F)(F)F)n1 [Compound 240] | 0.187 µM | 0.81 µM
15 | CCn1cc(-c2c(C(F)F)cccc2C2CN(C(=O)/C=C/CN(C)C)Cc3sc(C#N)cc32)c(C(F)(F)F)n1 (stereo not drawn) [Compound 241] | 0.445 µM | 5.52 µM
16 | CCn1cc(-c2c(C)cccc2[C@@H]2CN(C(=O)/C=C/CN(C)C)Cc3sc(C#N)cc32)c(C(F)(F)F)n1 [Compound 242] | 1.29 µM | 2.32 µM
17 | CCn1cc(-c2c(Cl)cccc2[C@@H]2CN(C(=O)/C=C/CN(C)C)Cc3sc(C#N)cc32)c(C(F)(F)F)n1 [Compound 243] | 0.502 µM | 1.17 µM
18 | CCn1cc(-c2ccccc2[C@@H]2CN(C(=O)/C=C/CNC(C)(C)CO)Cc3sc(C#N)cc32)c(C(F)(F)F)n1 [Compound 244] | 1.97 µM | 2.88 µM
19 | CCn1cc(-c2ccccc2[C@@H]2CN(C(=O)/C=C/CN(C)C)Cc3sc(C#N)c(Cl)c32)c(C(F)(F)F)n1 [Compound 247] | 0.2 µM | 1.66 µM
20 | CN(C)C/C=C/C(=O)N1Cc2sc(C#N)cc2[C@H](c2ccccc2-c2cn(C)nc2C(F)(F)F)C1 [Example 3, (S, E)-6-(4-(Dimethylamino)but-2-enoyl)-4-(2-(1-methyl-3-(trifluoromethyl)-1 H-pyrazol-4-yl)phenyl)-4,5,6,7-tetrahydrothieno[2,3-c]pyridine-2-carbonitrile] | 0.985 µM | 7.87 µM
21 | CCn1cc(-c2ccccc2[C@@H]2CN(C(=O)/C=C/CN3CCC(C(=O)O)C3)Cc3sc(C#N)cc32)c(C(F)(F)F)n1 (stereo partly drawn) [Example 5, 1-((E)-4-((S)-2-Cyano-4-(2-(1-ethyl-3-(trifluoromethyl)-1 H-pyrazol-4-yl)phenyl)-4,7-dihydrothieno[2,3-c]pyridin-6(5H)-yl)-4-oxobut-2-en-1-yl)pyrrolidine-3-carboxylic acid] | 14.1 µM | 10.3 µM
22 | CN(C)C/C=C/C(=O)N1Cc2sc(C#N)cc2[C@H](c2ccccc2-c2cn(CCF)nc2C(F)(F)F)C1 [Example 17, (S,E)-6-(4-(dimethylamino)but-2-enoyl)-4-(2-(1-(2-fluoroethyl)-3-(trifluoromethyl)-1 H-pyrazol-4-yl)phenyl)-4,5,6,7-tetrahydrothieno[2,3-c]pyridine-2-carbonitrile] | 0.269 µM | 2.47 µM
23 | CCn1cc(-c2ccccc2[C@@H]2CN(C(=O)/C=C/CF)Cc3sc(C#N)cc32)c(C(F)(F)F)n1 [Example 20, (S, E)-4-(2-(1-ethyl-3-(trifluoromethyl)-1 H-pyrazol-4-yl)phenyl)-6-(4-fluorobut-2-enoyl)-4,5,6,7-tetrahydrothieno[2,3-c]pyridine-2-carbonitrile] | 0.692 µM | 0.69 µM
24 | CCn1cc(-c2ccccc2[C@@H]2CN(C(=O)/C=C/C(F)F)Cc3sc(C#N)cc32)c(C(F)(F)F)n1 [Example 21, (S, E)-6-(4,4-difluorobut-2-enoyl)-4-(2-(1-ethyl-3-(trifluoromethyl)-1H-pyrazol-4-yl)phenyl)-4,5,6,7-tetrahydrothieno[2,3-c]pyridine-2-carbonitrile] | 0.12 µM | –
25 | CCN(CC)C/C=C/C(=O)N1Cc2sc(C#N)cc2[C@H](c2ccccc2-c2cn(CC)nc2C(F)(F)F)C1 [Example 28, (S, E)-6-(4-(Diethylamino)but-2-enoyl)-4-(2-(1-ethyl-3-(trifluoromethyl)-1 H-pyrazol-4-yl)phenyl)-4,5,6,7-tetrahydrothieno[2,3-c]pyridine-2-carbonitrile] | 0.331 µM | 8.43 µM
26 | CCn1cc(-c2ccccc2[C@@H]2CN(C(=O)/C=C/CN3CCCC3)Cc3sc(C#N)cc32)c(C(F)(F)F)n1 [Example 30, (S, E)-4-(2-(1-ethyl-3-(trifluoromethyl)-1 H-pyrazol-4-yl)phenyl)-6-(4-(pyrrolidin-1-yl)but-2-enoyl)-4,5,6,7-tetrahydrothieno[2,3-c]pyridine-2-carbonitrile] | 0.746 µM | 3.3 µM
27 | CCn1cc(-c2ccccc2C2CN(C(=O)/C=C/CN(C)C)Cc3sc(C#N)c(F)c32)c(C(F)(F)F)n1 (stereo not drawn) [Example 213, (E)-6-(4-(dimethylamino)but-2-enoyl)-4-(2-(1-ethyl-3-(trifluoromethyl)-1 H pyrazol-4-yl)phenyl)-3-fluoro-4,5,6,7-tetrahydrothieno[2,3-c]pyridine-2-carbonitrile] | – | 8.81 µM
28 | CCn1cc(-c2c(F)cccc2[C@@H]2CN(C(=O)/C=C/[C@@H](C)NC)Cc3sc(C#N)c(C)c32)c(C(F)(F)F)n1 [Example 218, (S)-4-(2-(1-ethyl-3-(trifluoromethyl)-1 H-pyrazol-4-yl)-3-fluorophenyl)-3-methyl-6-((R, E)-4-(methylamino)pent-2-enoyl)-4,5,6,7-tetrahydrothieno[2,3-c]pyridine-2-carbonitrile] | – | 0.81 µM
29 | CN[C@@H](C)/C=C/C(=O)N1Cc2sc(C#N)c(C)c2[C@H](c2cccc(F)c2-c2cn(C)nc2C(F)(F)F)C1 [Example 219, (S)-4-(3-fluoro-2-(1-methyl-3-(trifluoromethyl)-1 H-pyrazol-4-yl)phenyl)-3-methyl-6-((S, E)-4-(methylamino)pent-2-enoyl)-4,5,6,7-tetrahydrothieno[2,3-c]pyridine-2-carbonitrile] | – | 1.01 µM
